Source: patent US11352317B2, “Rosin-based small molecular weight hydrogelator and its application” (Jiangnan University, priority 2019, dated 2022)

How the values were obtained:
[1] = Steady-state shear of comparative aqueous solutions; type: physicochemical; details: 5 mmol·L^−1 aqueous solution; for viscosity of the system (steady-state shear): high or low shear rates
[2] = Determination of surface tension (ring method); type: physicochemical; details: aqueous, 25° C.
Description: Determination of surface tension. A series of aqueous surfactant solutions having different concentrations were prepared, and the surface tension was measured by a ring method at 25° C., and the surface tension curve was plotted.

[3] = Circular dichroism spectrum of gel; type: physicochemical; details: 5 mmol·L^−1 gel, 300-180 nm
Description: The measurement was carried out on a circular dichroism spectrometer model MOS-450. The signal was recorded at intervals of 0.1 nm within the wavelength range of 300-180 nm. Gel samples were measured using a 0.1 mm quartz sample cell.

[4] = tested on: L929 cells; experiment: 3D cell incubation in hydrogel, FDA/PI staining; type: cell-based; details: 3D incubation in hydrogel, 24 h, 48 h and 96 h
Description: L929 cells were encapsulated in a 6-dehydroabietylamide-N,N-dimethyl-hexylamine oxide gel under sterile conditions for 3D cell incubation. The cell suspension was added into the 6-dehydroabietylamide-N,N-dimethyl-hexylamine oxide solution with a sol state, and a cell/hydrogel system was formed within 30 s, and further incubated at 37° C. for 15 min. Thereafter, 2 mL of RPMI-1640 medium containing 10% FBS fetal bovine serum and 1% penicillin/streptomycin was gently added to the incubation dish, and the cell/hydrogel system was incubated in a humidified atmosphere of 37° C. and 5% CO2. The medium was replaced after 1 h of incubation and then replaced every 12 h. After incubation for 24 h, 48 h and 96 h, the cell/hydrogel system was stained with FDA/PI and the cells were observed by a confocal laser scanning microscope. […] It can be seen that 6-dehydroabietylamide-N,N-dimethyl-hexylamine oxide hydrogel can be used as a 3D cell incubation scaffold and had potential application in cell therapy and tissue regeneration.

[5] = Gel emulsion stability test; type: physicochemical; details: 20° C.; for Stability: gel emulsion, 0.22% stabilizer
Description: To the 0.22% solution of 6-dehydroabietylamide amine oxide, different volumes of oil were added (the volume ratios of 6-dehydroabietylamide amine oxide solution to oil were 0.2:9.8, 3:7, 5:5,7:3, and 9.9: 0.1, and total volume was 4 mL), and then the mixture was emulsified at 11,000 r/min using an ultraturrax homogenizer (IKA T18 basic, S18N-10G head) for 2 min. The emulsion was allowed to stand and cool at a low temperature to form a white gel emulsion.
The prepared gel emulsion was placed in a 20° C. incubator, and the stability of the gel emulsion was observed. When the concentration of 6-dehydroabietylamide-N,N-dimethyl-hexylamine oxide as stabilizer was 0.22% of the mass of the continuous phase, and the volume fraction of the disperse phase was in the range of 1%-98%, a gel emulsion was formed.

[6] = Cryo-TEM microstructure of the gel system; type: physicochemical; details: 5 mmol·L^−1 hydrogel
Description: Sample preparation was carried out using an environment controlled low temperature sample preparation device Cryoplunge TM3, and the ambient temperature was fixed at 25° C. The relative humidity in the device cavity was adjusted to over 90%, about 5 μL of the sample was pipetted onto the surface of the micro-grid, and the droplets on the surface of the micro-gate were absorbed by patting the sample with the filter paper on both sides of Cp3 to obtain a very thin liquid film. The sample was then quickly inserted into liquid ethane cooled liquid nitrogen. The frozen sample was transferred to a sample rod cooled with liquid nitrogen and transferred to a transmission electron microscope for observation at an operating voltage of 120 kV. It can be seen from the in situ frozen transmission electron micrograph of a hydrogel sample formed by 5 mmol·L^−1 6-dehydroabietylamide-N,N-dimethyl-hexylamine oxide in FIG. 8 that the microscopic morphology of the hydrogel was a relatively rigid nanofiber having a cross-sectional diameter of about 10 nm and a length of more than 2 μm.
The reason was that the 6-dehydroabietylamide-N,N-dimethyl-hexylamine oxide molecule formed a left-handed helical fiber structure having a diameter of about 10 nm by molecular self-assembly. […]

[7] = Determination of gel behavior (vial inversion); type: physicochemical
Description: To 1 mL of deionized water, 6-dehydroabietylamide-N,N-dimethyl-hexylamine oxide was added (concentrations were 4 mmol·L^−1, 10 mmol·L^−1, 15 mmol·L^−1, 20 mmol·L^−1, and 25 mmol·L^−1, respectively). The solution was heated to 40° C. to completely dissolve the 6-dehydroabietylamide-N,N-dimethyl-hexylamine oxide, and then allowed to stand at room temperature, and the solution state was investigated.
It can be seen from the photograph of the appearance of a gel formed by 6-dehydroabietylamide-N,N-dimethyl-hexylamine oxide in FIG. 5 (concentrations from left to right were 4 mmol·L^−1, 10 mmol·L^−1, 15 mmol·L^−1, 20 mmol·L^−1, and 25 mmol·L^−1, respectively) that when the concentration of 6-dehydroabietylamide-N,N-dimethyl-hexylamine oxide was greater than 4 mmol·L^−1, the 6-dehydroabietylamide-N,N-dimethyl-hexylamine oxide can support its own weight without flowing after invertion, indicating the formed gel has excellent viscoelasticity.
In a hydrogel formed by 4 mmol·L^−1 of 6-dehydroabietylamide-N,N-dimethyl-hexylamine oxide, the critical gelling concentration of the 6-dehydroabietylamide-N,N-dimethyl-hexylamine oxide was only 0.176%. Upon conversion, on average, each gelling agent molecule can immobilize 13,889 water molecules, showing extremely high gelling efficiency.

[8] = Gel sustained-release performance test (in vitro release of embedded Rhodamine B); type: physicochemical; details: embedded in 20 mmol·L^−1 hydrogel, 37° C.
Description: Rhodamine B was embedded in a hydrogel formed by 20 mmol·L^−1 6-dehydroabietylamide-N,N-dimethyl-hexylamine oxide and in vitro release experiments were carried out in a constant temperature oscillating water bath at 37° C. The absorbance of the release solution was measured by an ultraviolet-visible spectrophotometer to obtain an in vitro release curve. […] It can be seen that the hydrogel formed by 6-dehydroabietylamide-N,N-dimethyl-hexylamine oxide had good sustained-release ability and can be used in the fields of drug sustained release and so on.

[9] = Preparation of O/W type gel emulsion at different oil-water ratios; type: physicochemical; details: 20 mmol·L^−1 stabilizer, oil phase volume fraction 10% to 90%
Description: An amount of 6-dehydroabietylamide amine oxide was added to a 22 mm (d)×52 mm (h) glass vial with a total volume of 10 mL. After adding a certain amount of deionized water, the vial was heated in a water bath at 50° C. until the 6-dehydroabietylamide amine oxide was completely dissolved to obtain a transparent solution. Different volumes of oil were added to the 6-dehydroabietylamide amine oxide solution (the volume ratios of 6-dehydroabietylamide amine oxide solution to oil were 1:9, 2:8, 3:7, 4:6, 5:5, 6:4, 7:3, 8:2, and 9:1, and total volume was 4 mL), then the mixture was emulsified at 11,000 r/min using an ultraturrax homogenizer (IKA T18 basic, S18N-10G head) for 2 min. The emulsion was allowed to stand and cool at a low temperature to form a white gel emulsion.

SMILES	gel formation [1]	viscosity of the system (steady-state shear) [1]	critical micelle concentration [2]	γcmc (surface tension at cmc) [2]	chiral aggregate structure of nanofiber (CD signal) [3]	viability and proliferation of L929 cells in the gel [4]	stability of the gel emulsion after placing for one year ([5]; 0.22% of the mass of the continuous phase, disperse phase volume fraction 1%-98%)	Stability ([5]; continuous phase 0.2, disperse phase 9.8)	Stability ([5]; continuous phase 3, disperse phase 7)	Stability ([5]; continuous phase 5, disperse phase 5)	Stability ([5]; continuous phase 7, disperse phase 3)	Stability ([5]; continuous phase 9.9, disperse phase 0.1)	cross-sectional diameter of nanofiber [6]	length of nanofiber [6]	water molecules immobilized per gelling agent molecule (on average) ([7]; at critical gelling concentration, upon conversion)	concentration at which gel supports its own weight without flowing after inversion ([7]; deionized water, dissolved at 40° C., stood at room temperature)	critical gelling concentration ([7]; in water, hydrogel formed by 4 mmol·L^−1, room temperature)	release rate of Rhodamine B ([8]; in 40 h)	release rate of Rhodamine B ([8]; within 5 h)	stability of dodecane/hydrogel emulsion [9]
CC(C)c1ccc2c(c1)CCC1C(C)(C(=O)NCC[N+](C)(C)[O-])CCCC21C (stereo not shown) [2-dehydroabietylamide-N,N-dimethyl-ethylamine oxide]	neither 2-dehydroabietylamide-N,N-dimethyl-ethylamine oxide nor 3-dehydroabietylamide-N,N-dimethyl-propylamine oxide could form a gel	comparable to the viscosity of water	–	–	–	–	–	–	–	–	–	–	–	–	–	–	–	–	–	–
CC(C)c1ccc2c(c1)CCC1C(C)(C(=O)NCCC[N+](C)(C)[O-])CCCC21C (stereo not shown) [3-dehydroabietylamide-N,N-dimethyl-propylamine oxide]	neither 2-dehydroabietylamide-N,N-dimethyl-ethylamine oxide nor 3-dehydroabietylamide-N,N-dimethyl-propylamine oxide could form a gel	comparable to the viscosity of water	–	–	–	–	–	–	–	–	–	–	–	–	–	–	–	–	–	–
CC(C)c1ccc2c(c1)CCC1C(C)(C(=O)NCCCCCC[N+](C)(C)[O-])CCCC21C (stereo not shown) [6-dehydroabietylamide-N,N-dimethyl-hexylamine oxide]	–	–	0.56 mmol/L	35 mN·m^−1	left-handed helix	higher viability and proliferative ability	did not undergo demulsification	No demulsification occurs after incubation	No demulsification occurs after incubation	No demulsification occurs after incubation	No demulsification occurs after incubation	No demulsification occurs after incubation	about 10 nm	more than 2 μm	13,889	greater than 4 mmol·L^−1	0.176%	76%	28%	no phase separation occurs
